The values below are quoted from earlier work in paper PMC12658643, “Effects of Ligand N and O Donor Content on the Structure, Aqueous Stability, and SOD Activity of a Series of Mn^2+ Complexes with Pyridine-Containing Tripodal Ligands” (ACS Omega, 2025).

Data set [1] deals with superoxide ion. As to conditions: reported previously; reference not given; read-out: IC50 (SOD activity); cited from earlier work.
The conditions of data set [2]: given for comparison to the complexes; reference not given; cited from earlier work.

In the case of `OC(CCl)CN(Cc1ccccn1)Cc1ccccn1.[Cl][Mn][Cl]` (centres unmarked) [Mn(HPClNOL)Cl2], the IC50 in data set [1] is 350 nM.

B1: Escherichia coli MnSOD: manganese superoxide dismutase enzyme of Escherichia coli (protein, UniProt P00448 2-206, looked up)
Superoxide dismutase [Mn]: SYTLPSLPYAYDALEPHFDKQTMEIHHTKHHQTYVNNANAALESLPEFANLPVEELITKLDQLPADKKTVLRNNAGGHANHSLFWKGLKKGTTLQGDLKAAIERDFGSVDNFKAEFEKAAASRFGSGWAWLVLKGDKLAVVSTANQDSPLMGEAISGASGFPIMGLDVWEHAYYLKFQNRRPDYIKEFWNVVNWDEAAARFAAKK
As for B1, the “E 1/2 vs SHE of MnSOD enzymes” value in data set [2] is 0.40 V.

Usually IC50 stands for the midpoint of a concentration-inhibition curve.
